This passage reports Km, IC50 and Ki results from publication PMC10636026, “Coordinated regulation of the entry and exit steps of aromatic amino acid biosynthesis supports the dual lignin pathway in grasses” (Nature Communications, 2023).

A word on the Km: it is the concentration of substrate that gives half-maximal velocity.

Assay type in all cases: biochemical
The target in test [1] is T1, BdTyrAnc (non-canonical arogenate dehydrogenase) (Brachypodium distachyon, UniProt I1GYB3).
T1 construct: gene LOC100829970; without the predicted plastid transit peptide, poly-histidine tag
T1 sequence (I1GYB3 51-361): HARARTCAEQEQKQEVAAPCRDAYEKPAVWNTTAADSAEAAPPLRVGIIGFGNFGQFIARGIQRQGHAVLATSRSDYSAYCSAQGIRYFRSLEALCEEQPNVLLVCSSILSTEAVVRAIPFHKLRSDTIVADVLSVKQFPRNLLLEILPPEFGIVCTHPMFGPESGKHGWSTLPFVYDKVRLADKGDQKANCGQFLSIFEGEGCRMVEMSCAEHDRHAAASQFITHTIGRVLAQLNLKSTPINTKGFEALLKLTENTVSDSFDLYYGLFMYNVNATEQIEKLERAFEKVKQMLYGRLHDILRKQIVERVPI
Briefly: Michaelis-Menten kinetics of recombinant purified enzyme (Km).

Test [2] addresses T2, BdDHS1a (3-deoxy-D-arabino-heptulosonate 7-phosphate synthase) (Brachypodium distachyon, UniProt I1GSB3).
T2 construct: gene LOC100823133; without the predicted plastid transit peptide
Briefly: recombinant purified enzyme, DHS activity (PEP consumption at […] nm). To be noted: read-out: IC50 / (μM Agn).

Test [3] concerns the target T3, BdDHS2 (3-deoxy-D-arabino-heptulosonate 7-phosphate synthase) (Brachypodium distachyon, UniProt I1I809).
T3 construct: gene LOC100821423; without the predicted plastid transit peptide
The test is described as above. To be noted: read-out: IC50 / (μM Agn).

Test [4] concerns the target T3, BdDHS2 (3-deoxy-D-arabino-heptulosonate 7-phosphate synthase). Briefly: recombinant purified enzyme, DHS activity assay. The conditions noted are these: read-out: IC50 / (μM Trp).
The target in test [5] is T4, BdTyrA2 (arogenate dehydrogenase) (Brachypodium distachyon, UniProt I1GWX1).
T4 construct: gene LOC100833753; without the predicted plastid transit peptide, poly-histidine tag
T4 sequence (I1GWX1 56-365): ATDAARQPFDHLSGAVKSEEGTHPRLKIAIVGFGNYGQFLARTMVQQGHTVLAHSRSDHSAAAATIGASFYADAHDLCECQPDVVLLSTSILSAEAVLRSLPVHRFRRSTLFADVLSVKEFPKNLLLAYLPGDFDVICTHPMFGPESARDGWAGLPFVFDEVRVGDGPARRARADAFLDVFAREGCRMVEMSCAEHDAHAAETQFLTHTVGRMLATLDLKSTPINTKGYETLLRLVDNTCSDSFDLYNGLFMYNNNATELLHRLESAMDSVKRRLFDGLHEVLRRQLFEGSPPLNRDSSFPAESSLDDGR
Briefly: recombinant purified enzyme, arogenate dehydrogenase assay (NADPH at […] nm); Ki calculated from IC50 and Km. To be noted: read-out: Ki / (μM tyrosine).

In test [6] the target is T1, BdTyrAnc (non-canonical arogenate dehydrogenase). The test is described as above. To be noted: read-out: Ki / (μM tyrosine).

T3 sequence (I1I809 51-503): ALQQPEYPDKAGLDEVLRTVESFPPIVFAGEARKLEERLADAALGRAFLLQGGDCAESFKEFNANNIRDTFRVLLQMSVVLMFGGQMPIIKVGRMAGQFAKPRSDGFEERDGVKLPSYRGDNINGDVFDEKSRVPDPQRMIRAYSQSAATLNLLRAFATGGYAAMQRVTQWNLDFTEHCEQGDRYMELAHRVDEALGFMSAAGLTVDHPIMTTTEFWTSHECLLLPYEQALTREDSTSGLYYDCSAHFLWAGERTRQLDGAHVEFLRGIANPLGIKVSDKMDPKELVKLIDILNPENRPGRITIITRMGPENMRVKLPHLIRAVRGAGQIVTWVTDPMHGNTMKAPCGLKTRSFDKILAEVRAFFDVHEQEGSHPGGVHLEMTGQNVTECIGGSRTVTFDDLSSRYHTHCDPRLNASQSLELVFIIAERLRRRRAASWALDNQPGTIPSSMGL
T2 sequence (I1GSB3 46-537): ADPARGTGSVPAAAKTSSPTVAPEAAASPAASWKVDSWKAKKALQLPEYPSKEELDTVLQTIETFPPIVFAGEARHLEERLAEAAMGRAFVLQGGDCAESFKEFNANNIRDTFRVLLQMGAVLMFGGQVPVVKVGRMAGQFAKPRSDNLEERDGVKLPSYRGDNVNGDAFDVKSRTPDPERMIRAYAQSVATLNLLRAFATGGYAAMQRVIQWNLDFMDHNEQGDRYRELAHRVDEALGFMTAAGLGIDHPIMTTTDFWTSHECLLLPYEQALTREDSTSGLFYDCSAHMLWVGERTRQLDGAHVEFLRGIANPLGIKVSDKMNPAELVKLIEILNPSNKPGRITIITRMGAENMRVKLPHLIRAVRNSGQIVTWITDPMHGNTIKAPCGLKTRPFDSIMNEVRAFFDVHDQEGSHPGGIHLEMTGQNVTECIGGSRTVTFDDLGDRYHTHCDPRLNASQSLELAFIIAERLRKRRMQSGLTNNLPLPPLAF

As to `N[C@@H](C[C@]1(C(=O)O)C=C[C@@H](O)C=C1)C(=O)O` [arogenate], the Km in test [1] came to 0.13 ± 0.04 mM. Moreover, the IC50 came to 285 ± 24 µM in test [2] and 91 ± 11 µM in test [3].

In the case of `N[C@@H](Cc1c[nH]c2ccccc12)C(=O)O` [tryptophan], the IC50 in test [4] stood at 120 ± 4 µM.

As for `N[C@@H](Cc1ccc(O)cc1)C(=O)O` [tyrosine], the Ki in test [5] was 8 ± 2 µM; in test [6] it was 64 ± 25 µM.
